In brackets after ≈: the same amount, converted by molar mass. Read-outs that look alike come from different tables or passages of the source.
Assays:
S. aureus Sa1 ATCC 13709 = experiment: microbe, parasite or virus in culture; type: cell-based; settings: Staphylococcus aureus
[1] = system: S. aureus Sa26 ATCC 25923; experiment: Antibacterial activity assay (MIC), S. aureus Sa26; type: cell-based; settings: Staphylococcus aureus
S. aureus Sa4 NCTC 6571 = experiment: Antibacterial activity assay (MIC), S. aureus Sa4; type: cell-based; settings: Staphylococcus aureus
[2] = system: S. aureus Sa2 clinical strain NCIMB 41953, MRSA; experiment: microbe, parasite or virus in culture; type: cell-based; settings: Staphylococcus aureus, read-out: MIC Sa2
[3] = system: H. influenza Hi3 ATCC 31517; experiment: organism not typed; type: cell-based; settings: read-out: MIC Hi3
[4] = system: H. influenza Hi10 clinical strain; experiment: organism not typed; type: cell-based; settings: read-out: MIC Hi10
[5] = system: H. influenza Hi47 clinical strain, Ampicillin Resistant; experiment: organism not typed; type: cell-based; settings: read-out: MIC Hi47
[6] = system: H. influenza Hi106 ATCC 51907; experiment: organism not typed; type: cell-based; settings: read-out: MIC Hi106
E. coli Ec1 ATCC 25922 = experiment: Antibacterial activity assay (MIC), E. coli Ec1; type: cell-based; settings: Escherichia coli
[7] = system: E. coli Ec50 efflux pump KO; experiment: microbe, parasite or virus in culture; type: cell-based; settings: Escherichia coli, read-out: MIC Ec50 efflux pump KO
[8] = system: E. coli Ec113 efflux pump KO; experiment: microbe, parasite or virus in culture; type: cell-based; settings: Escherichia coli, read-out: MIC Ec113 efflux pump KO
[9] = biological target: DNA Polymerase IIIα (DnaE) from Staphylococcus aureus (Staphylococcus aureus, UniProt Q6GG04); experiment: biochemical
DNA III Polymerase E = DNA III Polymerase E (Escherichia coli, UniProt P10443); experiment: In vitro activity against DNA III Polymerase E, E. coli; type: biochemical
Experimental: A radioactive filterplate assay was used to assess inhibitory activity of compounds on DNA Polymerase IIIα. Five μL of a dilution series of compound, starting from 100 μM highest concentration, 1/5 dilution, was added to the wells of a 96 well plate. Recombinant enzyme was diluted to 0.47 μg/mL in a buffer containing 20 mM Tris pH7.5, 8 mM DTT, 10 mM MgOAc, 0.05% CHAPS and 10 μL thereof was added to the compound dilutions. The reaction was started with the addition of 10 μL substrate in the same buffer, containing activated calf thymus DNA (Sigma, D4522), dATP, dGTP, dCTP, dTTP (Invitrogen) and [α-33P]-dTTP (Perkin Elmer, NEG605H001) at a concentration of 62.5 μg/mL, 50 nM and 7.5 μCi/mL respectively. The mixture was incubated at 30° C. for 120 minutes and terminated by addition of phosphoric acid. Samples were transferred to filter plates and incorporated radioactivity was measured by the Topcount. Data were converted to percent inhibition with respect to positive and negative controls. IC50 values were calculated using Graph Prism™ software.

[10] = ATCC13709, S. aureus Sa1 ATCC 13709, sensitive strain, Mueller-Hinton Broth, 37° C., read-out: MIC Sa1
[11] = ATCC25923, read-out: MIC Sa26 + 10% SH, S. aureus Sa26 + 10% SH
[12] = ATCC25923, read-out: MIC Sa26 + 50% SH, S. aureus Sa26 + 50% SH
[13] = ATCC25923, S. aureus Sa26 ATCC 25923, sensitive strain, Mueller-Hinton Broth, 37° C., read-out: MIC Sa26
[14] = NCTC6571, S. aureus Sa4 NCTC 6571, sensitive strain, read-out: MIC Sa4
[15] = ATCC25922, E. coli Ec1 ATCC 25922, sensitive strain, read-out: MIC Ec1
[16] = DNA polymerase III, E. coli, read-out: IC50 semiquantitative scoring, E. coli

DNA III Polymerase E, sequence (P10443 whole entry): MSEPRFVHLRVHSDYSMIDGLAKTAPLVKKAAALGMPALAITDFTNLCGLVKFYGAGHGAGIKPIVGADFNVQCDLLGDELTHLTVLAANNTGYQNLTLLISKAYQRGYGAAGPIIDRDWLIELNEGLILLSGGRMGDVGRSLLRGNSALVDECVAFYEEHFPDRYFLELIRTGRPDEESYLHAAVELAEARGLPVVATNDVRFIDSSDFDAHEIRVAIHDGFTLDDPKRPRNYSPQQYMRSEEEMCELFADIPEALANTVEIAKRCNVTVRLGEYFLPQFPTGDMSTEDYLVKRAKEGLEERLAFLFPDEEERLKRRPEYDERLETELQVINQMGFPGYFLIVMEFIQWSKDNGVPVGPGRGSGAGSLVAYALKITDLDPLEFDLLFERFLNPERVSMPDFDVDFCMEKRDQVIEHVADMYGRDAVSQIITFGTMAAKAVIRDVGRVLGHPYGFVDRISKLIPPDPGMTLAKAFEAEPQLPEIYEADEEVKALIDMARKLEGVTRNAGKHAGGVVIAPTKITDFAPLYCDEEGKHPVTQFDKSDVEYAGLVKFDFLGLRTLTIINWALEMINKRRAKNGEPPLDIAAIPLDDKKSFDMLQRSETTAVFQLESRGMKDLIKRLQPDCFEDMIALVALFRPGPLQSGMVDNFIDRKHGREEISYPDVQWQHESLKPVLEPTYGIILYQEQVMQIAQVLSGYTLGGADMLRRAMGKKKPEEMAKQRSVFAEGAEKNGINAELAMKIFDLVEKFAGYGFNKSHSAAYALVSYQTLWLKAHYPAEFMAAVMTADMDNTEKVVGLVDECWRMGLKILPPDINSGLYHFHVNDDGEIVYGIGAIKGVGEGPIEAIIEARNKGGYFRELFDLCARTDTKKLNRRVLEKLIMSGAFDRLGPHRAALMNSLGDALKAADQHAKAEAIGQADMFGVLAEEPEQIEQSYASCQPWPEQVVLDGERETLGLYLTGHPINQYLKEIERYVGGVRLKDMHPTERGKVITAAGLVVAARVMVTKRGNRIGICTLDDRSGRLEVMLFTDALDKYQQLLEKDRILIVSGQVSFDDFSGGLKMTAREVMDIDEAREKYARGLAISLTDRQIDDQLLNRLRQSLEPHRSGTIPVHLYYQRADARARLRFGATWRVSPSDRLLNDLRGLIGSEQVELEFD
DNA Polymerase IIIα (DnaE) from Staphylococcus aureus, sequence (Q6GG04 1-1022): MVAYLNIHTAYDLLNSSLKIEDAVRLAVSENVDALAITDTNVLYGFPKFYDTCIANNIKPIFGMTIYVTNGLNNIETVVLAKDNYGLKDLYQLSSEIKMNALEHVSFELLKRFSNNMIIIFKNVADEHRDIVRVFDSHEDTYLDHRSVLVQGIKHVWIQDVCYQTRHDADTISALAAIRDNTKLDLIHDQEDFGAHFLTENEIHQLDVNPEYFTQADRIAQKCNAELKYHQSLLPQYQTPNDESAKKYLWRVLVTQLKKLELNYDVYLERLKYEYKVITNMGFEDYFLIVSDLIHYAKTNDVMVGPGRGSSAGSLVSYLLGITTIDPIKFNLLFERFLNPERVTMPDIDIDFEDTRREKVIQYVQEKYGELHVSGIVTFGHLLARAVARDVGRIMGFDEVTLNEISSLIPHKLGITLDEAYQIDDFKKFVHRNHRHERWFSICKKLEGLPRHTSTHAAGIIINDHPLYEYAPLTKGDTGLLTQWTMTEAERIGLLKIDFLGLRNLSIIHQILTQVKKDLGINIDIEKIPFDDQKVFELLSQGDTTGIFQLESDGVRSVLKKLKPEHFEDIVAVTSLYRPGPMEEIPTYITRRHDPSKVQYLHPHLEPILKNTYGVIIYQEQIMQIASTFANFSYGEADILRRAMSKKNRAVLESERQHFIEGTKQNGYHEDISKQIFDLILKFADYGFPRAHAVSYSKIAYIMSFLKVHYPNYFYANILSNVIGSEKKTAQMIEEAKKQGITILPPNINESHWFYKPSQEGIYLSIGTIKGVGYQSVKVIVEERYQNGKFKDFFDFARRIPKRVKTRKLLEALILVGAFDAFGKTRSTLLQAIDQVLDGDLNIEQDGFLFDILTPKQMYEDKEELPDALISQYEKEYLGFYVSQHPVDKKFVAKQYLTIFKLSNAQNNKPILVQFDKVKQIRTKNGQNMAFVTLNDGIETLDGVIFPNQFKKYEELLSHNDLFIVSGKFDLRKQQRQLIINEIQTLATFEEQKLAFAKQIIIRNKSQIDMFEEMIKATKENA

Row | Structure (SMILES) | MIC (S. aureus Sa1 ATCC 13709; [10]) | MIC [1, 11] | MIC [1, 12] | MIC [1, 13] | MIC (S. aureus Sa4 NCTC 6571; [14]) | MIC [2] | MIC [3] | MIC [4] | MIC [5] | MIC [6] | MIC (E. coli Ec1 ATCC 25922; [15]) | MIC [7] | MIC [8] | IC50 [9] | IC50 (DNA III Polymerase E) | IC50 (DNA III Polymerase E; [16]) | other results
1 | COC[C@@H](O)[C@H]1OC(=O)[C@H](COC)[C@H]2C=C[C@H]3[C@H]4O[C@]2(/C(C)=C/[C@H]1C)[C@@H]3[C@H](O)[C@@H](C)[C@H]4O [Compound 1, Baleomycin] | > 64 µg/mL | > 64 µg/mL | > 64 µg/mL | > 64 µg/mL | > 64 µg/mL | > 64 µg/mL | > 64 µg/mL | > 64 µg/mL | 64 µg/mL (≈ 141 µM) | 64 µg/mL (≈ 141 µM) | > 64 µg/mL | 2 µg/mL (≈ 4.42 µM) | 0.5 µg/mL (≈ 1.1 µM) | 2210 to 22100 nM | 2210 to 22100 nM |  | 
2 | COC[C@@H]1[C@@H](O)[C@@H]2[C@H]3CC[C@@H]4[C@@H](COC)C(=O)O[C@H]([C@H](O)COC)[C@H](C)/C=C(\C)[C@@]24O[C@H]3[C@@H]1OC(=O)c1ccc[nH]1 [Compound 16, 4,5-Dihydro-8-O-1H-pyrrole-2′-carbonylbranimycin] |  |  |  |  |  | 4 µg/mL (≈ 6.92 µM) | > 64 µg/mL | > 64 µg/mL | > 64 µg/mL | > 64 µg/mL |  | > 64 µg/mL | 4 µg/mL (≈ 6.92 µM) | 1.73 to 1730 nM |  | > 17300 nM | MIC (S. aureus Sa1 ATCC 13709; ATCC13709, read-out: MIC Sa1): 8 µg/mL (≈ 13.8 µM); MIC ([1]; ATCC25923, read-out: MIC Sa26): 8 µg/mL (≈ 13.8 µM); MIC ([1]; ATCC25923, read-out: MIC Sa26 + 10% SH): 8 µg/mL; MIC ([1]; ATCC25923, read-out: MIC Sa26 + 50% SH): 8 µg/mL; MIC (S. aureus Sa4 NCTC 6571; NCTC6571, read-out: MIC Sa4): 4 µg/mL (≈ 6.92 µM); MIC (E. coli Ec1 ATCC 25922; ATCC25922, read-out: MIC Ec1): > 64 µg/mL
3 | COC[C@@H]1[C@@H](O)[C@@H]2[C@H]3C=C[C@@H]4[C@@H](COC)C(=O)O[C@H]([C@H](O)COC)[C@H](C)/C=C(\C)[C@@]24O[C@H]3[C@@H]1OC(=O)c1ccoc1 [Compound 5, 8-O-Furane-3′-carbonylbranimycin] | 2 µg/mL (≈ 3.47 µM) | 2 µg/mL | 4 µg/mL | 4 µg/mL (≈ 6.94 µM) | 2 µg/mL (≈ 3.47 µM) | 2 µg/mL (≈ 3.47 µM) | > 64 µg/mL | > 64 µg/mL | > 64 µg/mL | > 64 µg/mL | > 64 µg/mL | > 64 µg/mL |  |  |  | > 17300 nM | IC50 ([9]; DNA polymerase III, S. aureus, read-out: IC50 semiquantitative scoring, S. aureus): 1.73 to 1730 nM
4 | COCC[C@H]1OC(=O)[C@H](COC)[C@H]2C=C[C@H]3[C@H]4O[C@]2(/C(C)=C/[C@H]1C)[C@@H]3[C@H](O)[C@@H](COC)[C@H]4OC(=O)c1ccc[nH]1 [Compound 4, 17-Deoxy-8-O-1H-pyrrole-2′-carbonylbranimycin] | 4 µg/mL (≈ 7.15 µM) | 4 µg/mL | 8 µg/mL | 4 µg/mL (≈ 7.15 µM) | 2 µg/mL (≈ 3.57 µM) | 4 µg/mL (≈ 7.15 µM) | > 64 µg/mL | > 64 µg/mL |  |  | > 64 µg/mL | > 64 µg/mL | 4 µg/mL (≈ 7.15 µM) | 1.79 to 1790 nM | > 17900 nM |  | 
5 | COCC(=NOC(C)=O)[C@H]1OC(=O)[C@H](COC)[C@H]2C=C[C@H]3[C@H]4O[C@]2(/C(C)=C/[C@H]1C)[C@@H]3[C@H](O)[C@@H](COC)[C@H]4OC(=O)c1ccc[nH]1 [Compound 29, 18-Acetylimino-18-deoxy-8-O-1H-pyrrole-2′-carbonylbranimycin] | 0.5 µg/mL (≈ 0.793 µM) | 1 µg/mL | 2 µg/mL | 1 µg/mL (≈ 1.59 µM) | 0.5 µg/mL (≈ 0.793 µM) | 0.5 µg/mL (≈ 0.793 µM) | > 64 µg/mL | > 64 µg/mL | 64 µg/mL (≈ 101 µM) | 64 µg/mL (≈ 101 µM) | > 64 µg/mL | 32 µg/mL (≈ 50.7 µM) | 0.5 µg/mL (≈ 0.793 µM) | 1.59 to 1590 nM |  |  | 

Reference: US20160297830A1, “NOVEL COMPOUNDS USEFUL FOR THE TREATMENT OF BACTERIAL INFECTIOUS DISEASES” (GALAPAGOS NV, priority 2013, published 2016)
